Assay results published in publication PMC10778758, “Dithioethanol (DTE)-Conjugated Deoxyribose Cyclic Dinucleotide Prodrugs (DTE-dCDNs) as STING Agonist” (International Journal of Molecular Sciences, 2023).

What was measured:
THP1-Lucia cells [1] = assay: Luciferase activity in THP1-Lucia cells pretreated with STING or TBK1 inhibitor; assay type: cell-based; conditions: inhibitor 10 μM pretreated 1 h, prodrug 9 10 μM, 24 h
Method: The endogenous 2′,3′-cGAMP was set as the positive control group. H-151 [26] and BX795 [27] were selected to use as the STING inhibitor and TBK1 inhibitor, respectively.
Figure 6 Prodrug 9 activated the IFN-β promoter responsive luciferase expression through STING signaling pathway. Prodrug 9 (10 μM) and 2′,3′-cGAMP (10 μM) were added to THP1-Lucia cells alone or pretreated with vehicle or H-151 (10 μM), BX795 (10 μM) for 1 h, respectively. The luciferase activity was measured with Quanti-Luc reagent via a 24 h incubation at 37 °C. Data are presented as mean ± SD, n = 3.

[2] = In vitro serum stability assay in 20% fetal bovine serum; assay type: in vitro ADME; conditions: 100 μM, 20% FBS, 37 °C
Method: In vitro serum stability assay. Each compound (100 μM) was incubated at 37 °C in the reaction buffer including 20% fetal bovine serum (FBS, GIBCO, Thermo Fisher Scientific, Waltham, MA, USA), 10 mM PBS (pH 7.4), and 1 mM MgCl2. At various times, aliquots of the reaction mixture were collected and stopped by adding 50 μL MeCN and diluted with 50 μL water. The reaction mixture was then centrifuged at 10,000 rpm for 5 min, leaving 100 μL supernatant for the HPLC assay. An amount of 10 μL of each aliquot was injected directly into HPLC (Agilent 1260 Infinity HPLC equipped with a UV detector; column Agilent ZORABX SB-C18 5 μm [4.6 × 150 mm; detection at 254 nm; column temperature 25 °C] for analysis. Amounts of 10 mM TEAA buffer (solvent A) and MeCN (solvent B) were used as the mobile phase with a flow rate of 1 mL/min. The gradient was set as the following: 0–2 min: 98% A/2% B; 2–6 min: 98% A/2% B to 100% B; 6–10 min: 100% B; 10–13 min: 100% B to 98% A/2% B; 13–15 min: 98% A/2% B. The % remaining of the test compounds after incubation in the serum was then calculated.
Figure 4 Parent dCDN of DTE-dCDN prodrug 9 retained a high serum stability. The serum stability analysis of (a) prodrug 9, (b) 3′,3′-c-di-dAMP, (c) 2′,3′-cGAMP and (d) ADU-S100 were determined in 20% FBS. Each compound (100 μM) was incubated in 20% FBS at 37 °C. At various times (0, 2, 4, 8, 12, 24, 48, 72 h), aliquots of the reaction mixture were analyzed with HPLC at 254 nm. The % remaining of test compounds after incubation in serum was calculated.

THP-1 cells = assay: Uptake of DTE-dCDN prodrug, intracellular levels by LC/MS/MS; conditions: THP-1 cells treated with 100 μM 3′,3′-c-di-dAMP, within 6 h
Method: Uptake of DTE-dCDN Prodrug. THP-1 cells were seeded at a concentration of 5 × 10^6 cells/mL into a 12-well plate. After 16 h of incubation at 37 °C in a 5% CO2 atmosphere, the compounds were added to cell cultures and the cells were collected at time points of 1 h, 2 h, 4 h, 6 h, 8 h, 12 h, and 24 h by centrifugation for 1 min at 1000× g. The media was removed completely, and the cells were washed twice with 800 μL of ice-cold PBS before being lysed with 400 μL ice-cold 70% methanol. Lysates were incubated overnight at −20 °C and then centrifuged for 20 min at 13,000× g to remove cellular debris. The supernatant was analyzed via LC/MS/MS (Agilent 1290 Infinity II/6470A)
(a) The intracellular concentration of the prodrug 9 in THP-1 cells. (b) The intracellular concentration of the parent dCDN (3′,3′-c-di-dAMP) in THP-1 cells. THP-1 cells were treated with 10 μM prodrug 9 or 100 μM parent dCDN (3′,3′-c-di-dAMP) for the indicated period of time (1, 2, 4, 6, 8, 12, 24 h), and the intracellular concentration of the metabolites in cellular extracts was determined with liquid chromatograph MS/MS analysis.

THP1-Lucia cells [3] = assay: THP1-Lucia cell-based luciferase reporter assay; conditions: 24 h
Method: THP1-Lucia cell-based reporter assay. THP1-Lucia cells were seeded into a 24-well plate at a density of 5 × 10^4 cells/well. […] Finally, the medium was collected to determine the luciferase activity using QUANTI-Luc (InvivoGen, San Diego, CA, USA) according to the manufacturer′s instruction to calculate the EC50 values of the tested compounds. The results are expressed as the mean ± SD from three independent experiments. Emax values were normalized to the response induced by 2′,3′-cGAMP in each assay and expressed as a mean percentage ± SD from three independent experiments. The THP1-Lucia cell line was obtained from Prof. Junmin Quan from Peking University (Beijing, China).
Figure 5 The luciferase-based assay in the THP1-Lucia reporter cell line. (a) EC50 values represent the mean (±SD) of three independent experiments. (b) Emax values represent the mean (±SD) of three independent experiments.

CT-26 cells = assay: RT-qPCR of IFN-β mRNA in CT-26 cells; assay type: cell-based; conditions: CT-26, prodrug 9 and ADU-S100 10 μM, CDNs 100 μM, 4 h
Method: Real-time quantitative PCR (RT-qPCR). The mRNA expression levels of diverse cytokines were measured using quantitative RT-PCR (RT-qPCR) assays. THP-1 cells or CT26 cells were incubated with the compounds for 4 h, subsequently harvested for RNA isolation according to the manufacturer’s instructions of RNApure Tissue&Cell Kit (DNase I) (CWBIO, Cambridge, MA, USA catalogue no. CW0560S). Next, 1 μg RNA was reversely transcribed to cDNA by TransScript All-in-One First-Strand cDNA Synthesis SuperMix for qPCR (One-Step gDNA Removal) (TransGen, Beijing, China). To examine the mRNA levels, real-time PCR was performed in a CFX96 Real-Time PCR system (Bio-RAD, Hercules, CA, USA) using PerfectStart Green qPCR Super Mix (TransGen) and primers (Sangon Biotech, Shanghai, China). The expression level was calculated according to the formula (2^−∆∆Ct) using the GAPDH or β-actin as the internal reference gene and the relative gene expression fold was normalized to the DMSO-treated cells. The THP-1 and CT26 cell lines were obtained from American Type Culture Collection (ATCC, Manassas, VA, USA). […]
expression levels of IFN-β were assessed by real-time quantitative PCR (qPCR) under the treatment of prodrug 9 (10 μM), 3′,3′-c-di-dAMP (100 μM), 2′,3′-cGAMP (100 μM) and ADU-S100 (10 μM) for 4 h.
Figure S3. […]
levels of IFN-β were assessed by an enzyme-linked immunosorbent assay (ELISA). […]

SMILES | effect on induction of luciferase expression by prodrug 9 (THP1-Lucia cells [1]) | T1/2 (half-life period) [2] | degraded at 72 h [2] | also measured
CCc1ccc(NC(=O)Nc2c[nH]c3ccccc23)cc1 [H-151] | could block the induction of the luciferase expression | – | – | –
Nc1ncnc2c1ncn2[C@H]1C[C@@H]2OP(=O)(O)OC[C@H]3O[C@@H](n4cnc5c(N)ncnc54)C[C@@H]3OP(=O)(O)OC[C@H]2O1 [3′,3′-c-di-dAMP] | – | > 72 h | did not show any degradation | intracellular levels of the parent dCDN 3′,3′-c-di-dAMP (THP-1 cells): not detectable; EC50 (THP1-Lucia cells [3]): 41.3 µM
O=C(NCCCNc1nc(Nc2cccc(NC(=O)N3CCCC3)c2)ncc1I)c1cccs1 [BX795] | could block the induction of the luciferase expression | – | – | –
Nc1ncnc2c1ncn2[C@@H]1O[C@@H]2COP(=O)([S-])O[C@@H]3[C@H](O)[C@@H](COP([O-])(=S)O[C@H]2[C@H]1O)O[C@H]3n1cnc2c(N)ncnc21.[Na+].[Na+] (stereo partly shown) [ADU-S100, reference compound] | – | 67 h | – | induction of IFN-β transcription in CT-26 cells (CT-26 cells): no significant induction
Nc1nc2c(ncn2[C@@H]2O[C@@H]3COP(=O)(O)O[C@H]4[C@@H](O)[C@H](n5cnc6c(N)ncnc65)O[C@@H]4COP(=O)(O)O[C@@H]2[C@@H]3O)c(=O)[nH]1 [2′,3′-cGAMP] | – | 31 h | 80% | –
